From patent publication US12593845B2 (priority 2019, dated 2026)

Experiments:
[1] = tested on: apple scab pathogen (Venturia inaequalis); assay: Apple scab control test; assay type: in vivo; settings: 336 h, 125 ppm drug solution sprayed onto apple seedlings (Orin), lesion area ratio 2 weeks after inoculation
Protocol: (§1) 5 parts by weight of the dihydropyrimidine compound of the present invention, 93.5 parts by weight of N,N-dimethylformamide, and 1.5 parts by weight of polyoxyethylene sorbitan monolaurate (TWEEN® 20) were mixed and dissolved to obtain an emulsion (I) including 5% of an active ingredient.
(§2) The control value was calculated by the following expression. Control value (%)=100−{lesion area ratio in treated group/lesion area ratio in untreated group}×100 [Expression 1]
Water was added to the emulsion (I) such that the concentration of the dihydropyrimidine compound reached 125 ppm to dissolve the emulsion, and a drug solution was obtained. Subsequently, the drug solution was sprayed onto apple seedlings (variety: “Orin”, leaf stage: 3 to 4) cultivated in seedling pots. After air drying, the seedlings were inoculated with conidiospores of an apple scab pathogen (Venturia inaequalis) (treated group). As a control, apple seedlings that were not sprayed with the drug solution were inoculated in the same manner (untreated group). The seedlings were left to stand in a humidified room at 20° C. using a 12 hour light/dark cycle.
On the day 2 weeks after the inoculation, the leaves of the apple seedlings were visually observed to determine the lesion area ratio, and the control value was calculated.

[2] = tested on: wheat brown rust pathogen (Puccinia recondita); assay: Wheat brown rust control test; assay type: in vivo; settings: 288 h, 125 ppm drug solution sprayed onto wheat seedlings (Norin 61), lesion area ratio 12 days after inoculation
Protocol: as §1, §2
Water was added to the emulsion (I) such that the concentration of the dihydropyrimidine compound reached 125 ppm to dissolve the emulsion, and a drug solution was obtained. Subsequently, the drug solution was sprayed onto wheat seedlings (variety: “Norin 61”, leaf stage: 1 to 2) cultivated in seedling pots. After air drying, uredospores of a wheat brown rust pathogen (Puccinia recondita) were sprinkled on wheat seedlings sprayed with the drug solution for inoculation (treated group). As a control, wheat seedlings that were not sprayed with the drug solution were inoculated in the same manner as described above (untreated group). The seedlings were left to stand in a greenhouse at 20° C.
On the 12 days after the inoculation, the leaves of the wheat seedlings were visually observed to determine the lesion area ratio, and the control value was calculated.

[3] = tested on: wheat powdery mildew pathogen (Erysiphe graminis f. sp. tritici); assay: Wheat powdery mildew control test; assay type: in vivo; settings: Blumeria graminis, 144 h; 125 ppm drug solution sprayed onto wheat seedlings (Chihoku); lesion area ratio 6 days after inoculation
Protocol: as §1, §2
Water was added to the emulsion (I) such that the concentration of the dihydropyrimidine compound reached 125 ppm to dissolve the emulsion, and a drug solution was obtained. Subsequently, the drug solution was sprayed onto wheat seedlings (variety: “Chihoku”, leaf stage: 1 to 2) cultivated in seedling pots. After air drying, conidiospores of a wheat powdery mildew pathogen (Erysiphe graminis f. sp. tritici) were sprinkled thereon for inoculation (treated group). As a control, wheat seedlings that were not sprayed with the drug solution were inoculated in the same manner as described above (untreated group). The seedlings were left to stand in a greenhouse at 20° C.
On the 6 days after the inoculation, the leaves of the wheat seedlings were visually observed to determine the lesion area ratio, and the control value was calculated.

[4] = tested on: wheat powdery mildew pathogen (Erysiphe graminis f. sp. tritici); assay: Wheat powdery mildew seed treatment test; assay type: in vivo; settings: Blumeria graminis, 168 h; seed treatment 100 g/100 kg wheat seeds (Chihoku); inoculation after 8 to 10 days; lesion area ratio 7 days after inoculation
Protocol: as §1, §2
The emulsion (I) was used to treat seeds such that (weight of dihydropyrimidine compound)/(weight of seeds) reached 100 g/100 kg based on the wheat seeds (variety: “Chihoku”). These seeds were disseminated in pots, and after 8 to 10 days, conidiospores of a wheat powdery mildew pathogen (Erysiphe graminis f. sp. tritici) were sprinkled thereon for inoculation (treated group). As a control, wheat seedlings that were not treated with the drug were inoculated in the same manner as described above (untreated group). The seedlings were left to stand in a greenhouse at 20° C.
(§3) On the 7 days after the inoculation, the leaves of the wheat seedlings were visually observed to determine the lesion area ratio, and the control value was calculated.

Aspergillus niger = assay: Antimicrobial test against Aspergillus niger; assay type: cell-based; settings: 96 h, Vogel medium, 25° C., 4 days in the dark, turbidity at 405 nm, read-out: growth inhibition rate
Protocol: Spores of Aspergillus niger were added to and dispersed in a Vogel medium, and a dihydropyrimidine compound dissolved in dimethyl sulfoxide was added and mixed thereto at 25 ppm. The resulting solution was dispensed onto a 96-well microplate and cultivated in the dark at 25° C. for 4 days.
After the cultivation, the turbidity at a wavelength of 405 nm was measured by a microplate reader and compared with that in the untreated case to determine the growth inhibition of Aspergillus niger (%) was determined.

[5] = tested on: wheat powdery mildew pathogen (Erysiphe graminis f. sp. tritici); assay: Wheat powdery mildew soil irrigation treatment test; assay type: in vivo; settings: Blumeria graminis, 168 h; soil irrigation with 10 ml of 100 ppm drug solution per pot, wheat (Chihoku); inoculation after 8 to 10 days; lesion area ratio 7 days after inoculation
Protocol: as §1, §2
Pots (5.5 cm×5.5 cm) in which wheat seeds (variety: “Chihoku”) were disseminated were irrigated with 10 ml of a drug solution prepared by adding water to the emulsion (I) so as to have a concentration of the dihydropyrimidine compound of 100 ppm. After 8 to 10 days, conidiospores of a wheat powdery mildew pathogen (Erysiphe graminis f. sp. tritici) were sprinkled thereon for inoculation (treated group). As a control, wheat seedlings that were not treated with the drug were inoculated in the same manner as described above (untreated group). The seedlings were left to stand in a greenhouse at 20° C.
as §3

SMILES	pest or weed control at 125 ppm [1]	pest or weed control at 125 ppm [2]	pest or weed control at 125 ppm [3]	pest or weed control at 100 g/100 kg seed [4]	inhibition at 25 ppm (Aspergillus niger)	pest or weed control at 100 ppm [5]
CCO/N=C(\C)c1cn(CC(O)c2cc(F)ccc2OC)c(=O)n(CC(C)(C)C(=O)NC(C)C)c1=O (stereo not shown) [A-25]	≥ 75%	≥ 75%	–	–	–	–
COc1ccccc1C(O)Cn1cc(/C(C)=N/OC(C)C)c(=O)n(C[C@H](C)NC(=O)C(C)C)c1=O (stereo partly shown) [A-58]	≥ 75%	–	≥ 75%	≥ 75%	≥ 50%	≥ 75%
COc1ccc(F)cc1C(Cn1cc(C=NOC(C)C)c(=O)n(C(C)C(=O)N2CCCCC2)c1=O)OCCC#N (stereo not shown) [A-69]	–	≥ 75%	≥ 75%	–	–	–
CCN(CC)C(=O)N[C@H](Cn1c(=O)c(/C(C)=N/OC(C)C)cn(CC(O)c2cc(F)ccc2OC)c1=O)C(C)C (stereo partly shown) [C-67]	–	–	–	–	–	≥ 75%
COc1ccc(F)cc1C(O)Cn1cc(/C(C)=N/OC(C)C)c(=O)n(C[C@@H](NC(=O)C(C)=O)C(C)C)c1=O (stereo partly shown) [C-73]	–	–	–	≥ 75%	≥ 50%	≥ 75%
COCC(=O)N[C@H](Cn1c(=O)c(/C(C)=N/OC(C)C)cn(CC(O)c2cc(F)ccc2OC)c1=O)C(C)C (stereo partly shown) [C-83]	–	–	–	≥ 75%	≥ 50%	≥ 75%
CC[C@@H](Cn1c(=O)c(/C(C)=N/OC(C)C)cn(CC(O)c2ccccc2OC)c1=O)NC(=O)C(C)C (stereo partly shown) [C-93]	–	–	–	≥ 75%	≥ 50%	≥ 75%
CCCC(=O)N[C@H](Cn1c(=O)c(/C(C)=N/OC(C)C)cn(CC(O)c2ccccc2OC)c1=O)C(C)C (stereo partly shown) [C-95]	–	–	–	≥ 75%	≥ 50%	≥ 75%
COc1ccccc1C(O)Cn1cc(/C(C)=N/OC(C)C)c(=O)n(C[C@@H](NC(=O)C2CC2)C(C)C)c1=O (stereo partly shown) [C-99]	–	–	–	≥ 75%	≥ 50%	≥ 75%
C=C(C)C(=O)N[C@H](Cn1c(=O)c(/C(C)=N/OC(C)C)cn(CC(O)c2cc(F)ccc2OC)c1=O)C(C)C (stereo partly shown) [C-101]	–	–	–	≥ 75%	≥ 50%	≥ 75%
CCO/N=C(\C)c1cn(CC(O)c2cc(F)ccc2OC)c(=O)n(C[C@@H](NC(=O)C(C)C)C(C)C)c1=O (stereo partly shown) [C-107]	–	–	–	≥ 75%	≥ 50%	≥ 75%
CCCC(=O)N[C@H](Cn1c(=O)c(/C(C)=N/OC(C)C)cn(CC(O)c2cc(F)ccc2OC)c1=O)C(C)C (stereo partly shown) [C-115]	–	–	–	≥ 75%	≥ 50%	–
CCC(=O)N[C@H](Cn1c(=O)c(/C(C)=N/OC(C)C)cn(CC(O)c2cc(F)ccc2OC)c1=O)C(C)C (stereo partly shown) [C-117]	–	–	–	≥ 75%	≥ 50%	≥ 75%
CCCC(=O)N[C@@H](C)Cn1c(=O)c(/C(C)=N/OC(C)C)cn(CC(O)c2cc(F)ccc2OC)c1=O (stereo partly shown) [C-135]	–	–	–	≥ 75%	≥ 50%	–
COc1ccc(F)cc1C(O)Cn1cc(/C(C)=N/OC(C)C)c(=O)n(C[C@@H](NC(=O)C(C)C)C(C)(C)C)c1=O (stereo partly shown) [C-148]	–	–	–	≥ 75%	≥ 50%	≥ 75%
CC[C@@H](Cn1c(=O)c(/C(C)=N/OC(C)C)cn(CC(O)c2cc(F)ccc2OC)c1=O)NC(=O)C(C)C (stereo partly shown) [C-154]	–	–	–	≥ 75%	≥ 50%	≥ 75%
C=Cc1ccccc1C(O)Cn1cc(/C(C)=N/OC(C)C)c(=O)n(C[C@H](C)NC(=O)C(C)C)c1=O (stereo partly shown) [C-160]	–	–	–	≥ 75%	≥ 50%	≥ 75%
COc1ccccc1C(O)Cn1cc(/C(C)=N/OC(C)C)c(=O)n(C[C@@H](NC(=O)C(C)C)C(C)C)c1=O (stereo partly shown) [C-170]	–	–	–	≥ 75%	≥ 50%	≥ 75%
COc1ccc(F)cc1C(O)Cn1cc(/C(C)=N/OC(C)C)c(=O)n(C[C@H](CCSC)NC(=O)C(C)C)c1=O (stereo partly shown) [C-176]	–	–	–	≥ 75%	≥ 50%	–
COc1ccc(F)cc1C(O)Cn1cc(/C(C)=N/OC(C)C)c(=O)n(C[C@H](C)NC(=O)N(C)C)c1=O (stereo partly shown) [C-179]	–	–	–	≥ 75%	≥ 50%	≥ 75%
COc1cc(F)c(F)cc1C(O)Cn1cc(/C(C)=N/OC(C)C)c(=O)n(C[C@H](C)NC(=O)C(C)C)c1=O (stereo partly shown) [C-182]	–	–	–	–	≥ 50%	≥ 75%
COc1ccc(F)cc1C(O)Cn1cc(/C(C)=N/OC(C)C)c(=O)n(C[C@H](C)NC(=O)NC(C)C)c1=O (stereo partly shown) [C-191]	–	–	–	–	–	≥ 75%
CCc1ccccc1C(O)Cn1cc(/C(C)=N/OC(C)C)c(=O)n(C[C@H](C)NC(=O)C(C)C)c1=O (stereo partly shown) [C-197]	–	–	–	≥ 75%	≥ 50%	≥ 75%
COc1ccc(F)cc1C(O)Cn1cc(/C(C)=N/OC(C)C)c(=O)n(C[C@H](CC(C)C)NC(=O)C(C)C)c1=O (stereo partly shown) [C-199]	–	–	–	≥ 75%	≥ 50%	≥ 75%
COc1ccc(F)cc1C(O)Cn1cc(/C(C)=N/OC(C)C)c(=O)n(C[C@@H](NC(C)=O)C(C)C)c1=O (stereo partly shown) [C-207]	–	–	–	≥ 75%	≥ 50%	≥ 75%
COc1ccc(F)cc1C(O)Cn1cc(/C(C)=N/OC(C)C)c(=O)n(C[C@@H](NC(=O)C(C)C)C(C)C)c1=O (stereo partly shown) [C-210]	–	–	–	≥ 75%	≥ 50%	≥ 75%
